Measurements reported in article PMC3543460, “Structure-Activity Relationships of the Antimicrobial Peptide Arasin 1 — And Mode of Action Studies of the N-Terminal, Proline-Rich Region” (PLoS ONE, 2013).
Converted amounts (≈) assume the structure as drawn. Peptide text beside a SMILES is read from it.

Assays:
E. coli ATCC 25922 = format: cell-based, Escherichia coli; conditions: ATCC 25922, 24 h
Procedure: (§1) Escherichia coli (ATCC 25922), E. coli HB101, Pseudomonas aeruginosa (ATCC 27853), Staphylococcus aureus (ATCC 9144) and Corynebacterium glutamicum (ATCC 13032) were grown at 37°C in Mueller Hinton agar (MH; Difco Laboratories, Detroit, USA). The yeasts Candida albicans (ATCC 10231) and Saccharomyces cerevisiae spp and the mold Botrytis cinerea 101 [33] were cultivated on potato dextrose agar supplemented with 2% glucose at room temperature (RT).
(§2) Determination of the MIC against bacteria was performed by continuous monitoring of bacterial growth using a Bioscreen C microbiology reader (Labsystems Oy, Helsinki, Finland). The synthetic peptides were tested for antibacterial and antifungal activity at final concentrations (prepared from serial two-fold dilutions) ranging from 0.2 µM to 100 µM. The test was performed in 100-well flat-bottomed honeycomb plates, in which 50 µl peptide solution was incubated with 50 µl of a suspension of an actively growing culture of bacteria diluted to a starting concentration of 2.5×10^5 CFU/ml in Mueller Hinton Broth (MHB). The growth chamber was maintained at 37°C during the incubation period. The absorbance was measured by a turbidometric method with vertical light photometry and a wide band filter (420–580 nm). MIC was defined as the lowest concentration resulting in no visible bacterial growth after 24 h.

E. coli HB101 [1] = assay: Antibacterial MIC assay (Bioscreen C growth monitoring); format: cell-based, Escherichia coli; conditions: 50% MH
Procedure: as §1, §2

P. aeruginosa ATCC 27853 = format: cell-based, Pseudomonas aeruginosa; conditions: ATCC 27853, 24 h
Procedure: as §1, §2

C. glutamicum ATCC 13032 = format: cell-based, Corynebacterium glutamicum; conditions: ATCC 13032, 24 h
Procedure: as §1, §2

S. aureus ATCC 9144 = format: cell-based, Staphylococcus aureus; conditions: ATCC 9144, 24 h
Procedure: as §1, §2

S. cerevisiae spp. = format: cell-based, Saccharomyces cerevisiae; conditions: 48 h
Procedure: as §1
(§3) Fungal spores were dissolved in potato dextrose broth (Difco, Lawrence, KS, USA) and the cell concentration was determined and adjusted after counting in a Bürker chamber. Botrytis cinerea was filtered through a piece of cotton before counting. An aliquot of 50 µl of fungal spores (final concentration 2×10^5 spores/ml) were inoculated in 96-well Nunclon™ microtitre plates (Nagle Nunc Int. Roskilde, Denmark) along with 50 µl of synthetic peptide dissolved in Milli-Q water. Cultures were grown in a dark moist chamber without shaking at 20°C for S. cerevisiae and B. cinerea, and at 37°C for C. albicans. Growth inhibition was determined microscopically after 48 h of incubation. Inhibitory concentrations (IC50) was defined as the lowest concentration tested which yielded less than 50% visible growth compared to the growth control (fungi). Each peptide was tested in parallels in three individual runs for the antimicrobial assays.

C. albicans ATCC 10231 = format: cell-based, Candida albicans; conditions: ATCC 10231, 48 h
Procedure: as §1, §3

B. cinerea 101 = format: cell-based, Botrytis cinerea
Procedure: as §1, §3

E. coli HB101 [2] = assay: Bactericidal assay (killing kinetics, colony counts); format: cell-based, Escherichia coli; conditions: 50% MHB, 1×10^6 CFU/ml, 37°C
Procedure: During incubation, aliquots were removed at different time intervals, washed in buffered high salt solution (10 mM Na-phosphate, 400 mM NaCl, 10 mM MgCl2), diluted and plated on MH plates. The number of bacterial CFU was determined after approximately 48 h of incubation at 37°C.

[3] = tested on: E. coli HB101 constitutively expressing the luxCDABE operon; assay: Cell viability assay (luxCDABE luminescence); format: cell-based, Escherichia coli; conditions: at MIC, within the first 10 min after addition of peptide; 50% MH, OD600 0.2, 30°C
Procedure: E.coli HB101 was transformed with the plasmid pCGLS-11 to enable constitutive bacterial luciferase expression from the luxCDABE operon. The resulting strain was used for cell viability assays as follows. An overnight culture in MH medium with ampicillin (100 µg/ml) was pelleted at 3000×g for 10 min and washed in MH medium before re-suspending the cells in 50% MH medium with a final OD600 of approximately 0.2. After 30 min of incubation at 30°C the cells were again adjusted to an OD600 of 0.2. An aliquot of 95 µl of bacterial solution was dispensed into each well of a black 96 well microtiter plate with transparent bottom (Falcon, Bredford, MA, USA). To achieve the indicated concentrations, a multi-channel pipette was used to add 5 µl of a two-fold dilution series of peptide solution in water to 8 wells simultaneously. The plate was loaded into a Perkin-Elmer Envision microtiter plate reader immediately after addition of the peptide (arasin 1(1–23), PR-39(1–26) or cecropin P1) and the measurement started 30 sec later because of handling events and 2 seconds of shaking inside the plate reader. Light production and growth (OD595) of the sensor bacteria was followed for 3 h under repeated shaking cycles before each measurement at 30°C.

E. coli HB101 [4] = assay: Membrane integrity assay II (propidium iodide, flow cytometry); format: cell-based, Escherichia coli; conditions: at MIC; PI flow cytometry
Procedure: The effect of arasin 1(1–23) and cecropin P1 on membrane permeabilization was also studied by measuring the percentage of propidium iodide (PI) positive cells by flow cytometry. Samples of 1×10^6 cells/ml of E. coli HB101 were incubated in 50% MH with peptides at 37°C for different time span. After incubation, PI (Sigma Aldrich, Saint Louis, MO, USA) was added to the peptide-treated bacteria at a final concentration of 10 µg/ml. The cells were analyzed after 4 min of incubation with PI at 37°C in the flow cytometer as described.

Gram-negative bacteria = conditions: cited from earlier work
Procedure: The high standard deviation values only observed at 20 µM (5×MIC) for both the viability assay (Fig. 3) and the membrane integrity assay (Fig. 6) indicate that activity around this concentration was very sensitive to individual assay conditions.

E. coli = assay: Antimicrobial activity at varied MH concentration; format: cell-based, Escherichia coli; conditions: results not shown
Description: In contrast to the results from E. coli and P. aeruginosa, the C-terminal part of arasin 1(1–23) alone arasin 1(7–23) and 1(9–23) inhibits C. glutamicum and all the fungi. At the same time this antibacterial and antifungal activity is strictly dependent on a fragment between aa 13–23. This indicates a somewhat different mode of action for Gram- negative and Gram-positive bacteria, respectively. Likewise the mode of action against fungi is likely different. It is tempting to speculate that the N-terminal 5–10 amino acids might be involved in arasin 1(1–23) transfer across the outer membrane while the C-terminal part might bind the molecular target which is responsible for growth inhibition at low concentrations. The antimicrobial assays were all performed in MH or potato dextrose medium at a final concentration of 50% strength for bacteria and fungi, respectively. […] This means that the peptides are very sensitive to medium composition, and perhaps also salinity and/or ionic strength. […] In some studies, the use of diluted or poor medium instead of rich medium in MIC and mode of action studies is claimed to increase the sensitivity of the assays, [47]. The reasons of the medium-dependence have not been further evaluated, and 50% MH was used as the standard medium for the mode of action studies.

[5] = tested on: human red blood cells (RBC); assay: Hemolytic assay; conditions: read-out: EC50 (peptide concentration producing 50% hemolysis); 1% RBC suspension in PBS pH 7.4, 37°C, 1 h, absorbance at 550 nm; 100% hemolysis = 0.05% Triton X-100
Procedure: The erythrocytes were pelleted by centrifugation at 450×g for 10 min and washed three times with phosphate-buffered saline (PBS; 320 mOsm, pH 7.4). The cell pellet was resuspended in 4 ml PBS and adjusted to a suspension giving 10% RBC. The test was performed in a 96 well U-shaped microtiter plate (Nunclon™ Surface, No. 163320; Nagle Nunc Int., Roskilde, Denmark), in which 50 µl peptide were incubated with 40 µl PBS and 10 µl RBC suspension. The synthetic peptides were tested at final concentrations ranging from 0.2 to 100 µM. After incubation in a shaker at 37°C for 1 h, the plate was centrifuged at 200×g for 5 min. The supernatants (60 µl) were carefully transferred to a new flat-bottomed polycarbonate microtiter plate (Nunc™ No. 269620, Nagle Nunc Int., Roskilde, Denmark), and absorbance was measured at 550 nm. Baseline hemolysis and 100% hemolysis were defined as the amount of hemoglobin released in the presence of PBS and 0.05% Triton X-100 (Sigma-Aldrich, Saint Louis, MO, USA), respectively. The EC50 value was taken as the mean concentration of peptide producing 50% hemolysis.

Molecule | MIC E. coli ATCC 25922 (E. coli ATCC 25922) [µM] | MIC E. coli HB101 (E. coli HB101 [1]; lowest concentration with no visible bacterial growth after 24 h, 37°C, 2.5×10^5 cells/mL, representative of three individual experiments) [µM] | MIC against E. coli HB101 (figure legend) (E. coli HB101 [1]; value used for mode of action studies) [µM] | MIC P. aeruginosa ATCC 27853 (P. aeruginosa ATCC 27853) [µM] | MIC C. glutamicum ATCC 13032 (C. glutamicum ATCC 13032) [µM] | MIC S. aureus ATCC 9144 (S. aureus ATCC 9144) [µM] | IC50 (S. cerevisiae spp.) [µM] | IC50 (C. albicans ATCC 10231) [µM] | IC50 B. cinerea 101 (B. cinerea 101; lowest concentration tested giving less than 50% visible growth vs growth control, potato dextrose medium, 20°C, 48 h, three individual experiments) [µM] | time to kill all the bacteria (E. coli HB101 [2]) | reduction of light emitted [3] [%] | incubation time after which damage of the membrane was induced (E. coli HB101 [4]) [min] | MBC against Gram-negative bacteria (Gram-negative bacteria) [µM] | IC50 (B. cinerea 101; 101, 48 h) [µM] | change of antimicrobial activity against E. coli by varying the MH concentration (E. coli) | EC50 [5] [µM]
CC[C@H](C)[C@H](NC(=O)CNC(=O)[C@H](CCC(=O)O)NC(=O)[C@H](CO)NC(=O)[C@@H](NC(=O)[C@H](CCCNC(=N)N)NC(=O)[C@H](CCCCN)NC(=O)[C@H](CCCCN)NC(=O)[C@H](C)NC(=O)[C@H](CO)NC(=O)[C@H](CC(N)=O)NC(=O)[C@H](CCC(=O)O)NC(=O)[C@H](CC(C)C)NC(=O)[C@H](CCCCN)NC(=O)[C@H](CCCCN)NC(=O)[C@H](C)NC(=O)[C@@H](NC(=O)[C@H](CCCCN)NC(=O)[C@H](CO)NC(=O)[C@H](CC(C)C)NC(=O)[C@H](Cc1c[nH]c2ccccc12)NC(=O)[C@@H](N)CO)[C@@H](C)O)[C@@H](C)CC)C(=O)N[C@@H](C)C(=O)N[C@H](C(=O)N[C@@H](C)C(=O)N[C@H](C(=O)N[C@@H](CCC(N)=O)C(=O)NCC(=O)NCC(=O)N1CCC[C@H]1C(=O)N[C@@H](CCCNC(=N)N)C(=O)O)[C@@H](C)CC)[C@@H](C)CC [Cecropin P1, reference compound] (H-SWLSKTAKKLENSAKKRISEGIAIAIQGGPR-OH; N-terminus and C-terminus assumed) | 0.8 to 1.6 | 0.8 to 1.6 | 1 (≈ 3.34 µg/mL) | 0.8 to 1.6 | 0.4 to 1.6 | >100 | 6.3 | 12.5 | 50 | approximately 15 min | 60 | 5 | 1 to 2 |  |  | 
CC[C@H](C)[C@H](NC(=O)[C@H](CCCNC(=N)N)NC(=O)[C@@H]1CCCN1C(=O)[C@@H]1CCCN1C(=O)[C@H](CC(C)C)NC(=O)[C@H](CCCNC(=N)N)NC(=O)[C@@H]1CCCN1C(=O)[C@@H]1CCCN1C(=O)[C@H](Cc1ccccc1)NC(=O)[C@H](Cc1ccccc1)NC(=O)[C@@H]1CCCN1C(=O)[C@@H]1CCCN1C(=O)[C@@H]1CCCN1C(=O)[C@H](CCCNC(=N)N)NC(=O)[C@@H]1CCCN1C(=O)[C@H](CCCNC(=N)N)NC(=O)[C@@H]1CCCN1C(=O)[C@H](CC(C)C)NC(=O)[C@H](Cc1ccc(O)cc1)NC(=O)[C@@H]1CCCN1C(=O)[C@@H]1CCCN1C(=O)[C@H](CCCNC(=N)N)NC(=O)[C@@H]1CCCN1C(=O)[C@H](CCCNC(=N)N)NC(=O)[C@H](CCCNC(=N)N)NC(=O)[C@@H](N)CCCNC(=N)N)C(=O)O [PR39(1–26), reference compound] (H-RRRPRPPYLPRPRPPPFFPPRLPPRI-OH; N-terminus and C-terminus assumed) | 0.8 to 1.6 |  |  | 3.1 to 6.3 | 0.4 (≈ 1.29 µg/mL) | 50 (≈ 161 µg/mL) | 12.5 | 12.5 |  |  |  |  |  | 12.5 | did not change the antimicrobial activity | 
mellitin B: hemolytic control peptide purchased from Sigma-Aldrich |  |  |  |  |  |  |  |  |  |  |  |  |  |  |  | 2
